From patent US20160175284A1, “ESTROGEN RECEPTOR MODULATORS AND USES THEREOF” (Genentech, Inc., priority 2014, published 2016)

target: T1, estrogen receptor alpha (ESR1) in MCF7 breast cancer cells (Homo sapiens, UniProt P03372); experiment: Breast Cancer Cell ERa High Content Fluorescence Imaging Assay (F10); type: cell-based; conditions: 4 hours, plateau of the maximal effect, DMSO and 5 nM Fulvestrant define 0% and 100% changes in ESR1
T1 construct: endogenous in cells; host or cells: MCF7 breast cancer cells
T1 sequence (P03372 1-595): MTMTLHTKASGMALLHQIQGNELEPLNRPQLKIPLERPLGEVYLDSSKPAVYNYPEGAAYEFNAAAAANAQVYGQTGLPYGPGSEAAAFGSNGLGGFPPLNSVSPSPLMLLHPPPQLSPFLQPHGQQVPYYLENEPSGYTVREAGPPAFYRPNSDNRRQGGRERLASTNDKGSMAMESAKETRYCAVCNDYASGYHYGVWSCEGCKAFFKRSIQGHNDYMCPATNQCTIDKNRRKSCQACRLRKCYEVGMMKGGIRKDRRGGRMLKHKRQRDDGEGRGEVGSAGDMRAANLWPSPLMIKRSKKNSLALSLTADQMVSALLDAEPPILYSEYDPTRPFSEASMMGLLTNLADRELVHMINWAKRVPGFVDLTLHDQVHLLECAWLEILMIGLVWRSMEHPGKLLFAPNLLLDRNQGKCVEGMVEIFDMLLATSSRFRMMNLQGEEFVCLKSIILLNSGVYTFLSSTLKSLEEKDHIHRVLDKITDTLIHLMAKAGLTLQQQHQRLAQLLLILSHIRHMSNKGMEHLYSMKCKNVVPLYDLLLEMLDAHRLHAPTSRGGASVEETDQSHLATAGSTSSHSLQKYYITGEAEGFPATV
Procedure: Breast Cancer Cell ERa High Content Fluorescence Imaging Assay (F10)
Cell plates were incubated at 37° C., for 4 hours. Fixation and permeabilization were carried out using a Biotek EL406 plate washer and dispenser as follows. […] Samples were incubated 30 minutes. Well contents was aspirated and 50 ul/well of Phosphate Buffered Saline (PBS) containing 0.5% w/v bovine serum albumen, 0.5% v/v Triton X-100 (Antibody Dilution Buffer) was added to each well. Samples were incubated for 30 minutes. Well contents were aspirated and washed 3 times with 100 ul/well of PBS. Immunofluorescence staining of estrogen receptor alpha (ESR1) was carried out using a Biotek EL406 plate washer and dispenser as follows. […] Samples were incubated for 2 hours at room temperature. Samples were washed 4 times with 100 ul/well of PBS. […] Samples were incubated for 2 hours at room temperature. Samples were washed 3 times with 100 ul/well of PBS using a Biotek EL406. Quantitative fluorescence imaging of ESR1 was carried out using a Cellomics Arrayscan V (Thermo). […] Channel 1 (DNA stain) was used to define the nuclear region (Circ). […] Data analysis was carried out using Genedata Screener Software, with DMSO and 5 nM Fulvestrant treated samples being used to define the 0% and 100% changes in ESR1. The “Robust Fit” method was used to define the inflexion point of curve (EC50) and the plateau of the maximal effect (Sinf).

Row | Compound | ER-alpha MCF7 HCS Sinf (%)
1 | CC1=C(c2ccc(C(N)=O)cc2)C(c2ccc(OCCN3CC(CF)C3)cc2)Oc2ccc(O)cc21 (stereo not drawn) [Example 15, 4-(2-(4-(2-(3-(Fluoromethyl)azetidin-1-yl)ethoxy)phenyl)-6-hydroxy-4-methyl-2H-chromen-3-yl)benzamide] | −99%
2 | CC1=C(c2ccc(Cl)c(F)c2)C(c2ccc(OC[C@H](C)N3CC[C@@H](CF)C3)cc2)Oc2ccc(O)cc21 (stereo partly drawn) [Example 1, 3-(4-Chloro-3-fluorophenyl)-2-(4-((S)-2-((R)-3-(fluoromethyl)pyrrolidin-1-yl)propoxy)phenyl)-4-methyl-2H-chromen-6-ol] | −91%
3 | CC1=C(c2ccc(NS(C)(=O)=O)cc2)C(c2ccc(OCCN3CC(CF)C3)cc2)Oc2ccc(O)cc21 (stereo not drawn) [Example 13, N-(4-(2-(4-(2-(3-(Fluoromethyl)azetidin-1-yl)ethoxy)phenyl)-6-hydroxy-4-methyl-2H-chromen-3-yl)phenyl)methanesulfonamide] | −68%
4 | CC1=C(c2cccc(CO)c2)C(c2ccc(OCCN3CC(CF)C3)cc2)Oc2ccc(O)cc21 (stereo not drawn) [Example 17, 2-(4-(2-(3-(Fluoromethyl)azetidin-1-yl)ethoxy)phenyl)-3-(3-(hydroxymethyl)phenyl)-4-methyl-2H-chromen-6-ol] | −101%
5 | CC1=C(c2ccc(F)cc2C)C(c2ccc(OCCN3CC(CF)C3)cc2)Oc2ccc(O)cc21 (stereo not drawn) [Example 6, 3-(4-Fluoro-2-methylphenyl)-2-(4-(2-(3-(fluoromethyl)azetidin-1-yl)ethoxy)phenyl)-4-methyl-2H-chromen-6-ol] | −96%
6 | CC1=C(c2ccc(C#N)c(Cl)c2)C(c2ccc(OCCN3CC(CF)C3)cc2)Oc2ccc(O)cc21 (stereo not drawn) [Example 18, 2-Chloro-4-(2-(4-(2-(3-(fluoromethyl)azetidin-1-yl)ethoxy)phenyl)-6-hydroxy-4-methyl-2H-chromen-3-yl)benzonitrile] | −99%
7 | CC1=C(c2ccc(CO)cc2)C(c2ccc(OCCN3CC(CF)C3)cc2)Oc2ccc(O)cc21 (stereo not drawn) [Example 16, 2-(4-(2-(3-(Fluoromethyl)azetidin-1-yl)ethoxy)phenyl)-3-(4-(hydroxymethyl)phenyl)-4-methyl-2H-chromen-6-ol] | −99%
8 | CC1=C(c2cccc(F)c2Cl)C(c2ccc(OCCN3CC(CF)C3)cc2)Oc2ccc(O)cc21 (stereo not drawn) [Example 5] | −98%
9 | CC(=O)Nc1cccc(C2=C(C)c3cc(O)ccc3OC2c2ccc(OCCN3CC(CF)C3)cc2)c1 (stereo not drawn) [Example 10, N-(3-(2-(4-(2-(3-(Fluoromethyl)azetidin-1-yl)ethoxy)phenyl)-6-hydroxy-4-methyl-2H-chromen-3-yl)phenyl)acetamide] | −94%
10 | COc1cc(C2=C(C)c3cc(O)ccc3OC2c2ccc(OCCN3CC(CF)C3)cc2)ccc1O (stereo not drawn) [Example 46, 2-(4-(2-(3-(fluoromethyl)azetidin-1-yl)ethoxy)phenyl)-3-(4-hydroxy-3-methoxyphenyl)-4-methyl-2H-chromen-6-ol] | −98%
11 | CC1=C(c2cccc(NS(C)(=O)=O)c2)C(c2ccc(OCCN3CC(CF)C3)cc2)Oc2ccc(O)cc21 (stereo not drawn) [Example 12, N-(3-(2-(4-(2-(3-(Fluoromethyl)azetidin-1-yl)ethoxy)phenyl)-6-hydroxy-4-methyl-2H-chromen-3-yl)phenyl)methanesulfonamide] | −93%
12 | CC1=C(c2cc(F)ccc2F)[C@@H](c2ccc(OCCN3CC(CF)C3)cc2)Oc2ccc(O)cc21 [Example 42, (2R)-3-(2,5-difluorophenyl)-2-[4-[2-[3-(fluoromethyl)azetidin-1-yl]ethoxy]phenyl]-4-methyl-2H-chromen-6-ol] | −94%
13 | CC1=C(c2ccc(F)cc2Cl)C(c2ccc(OCCN3CC(CF)C3)cc2)Oc2ccc(O)cc21 (stereo not drawn) [Example 32, 3-(2-chloro-4-fluoro-phenyl)-2-[4-[2-[3-(fluoromethyl)azetidin-1-yl]ethoxy]phenyl]-4-methyl-2H-chromen-6-ol] | −99%
14 | CC1=C(c2ccc(F)cc2)C(c2ccc(OCCN3CC(CF)C3)cc2)Oc2cc(C)c(O)cc21 (stereo not drawn) [Example 29, 2-{4-[2-(3-Fluoromethyl-azetidin-1-yl)-ethoxy]-phenyl}-3-(4-fluoro-phenyl)-4,7-dimethyl-2H-chromen-6-ol] | −90%
15 | CC1=C(c2cccc(O)c2)C(c2ccc(OCCN3CC(CF)C3)cc2)Oc2cc(Cl)c(O)cc21 (stereo not drawn) [Example 26, 7-Chloro-2-(4-(2-(3-(fluoromethyl)azetidin-1-yl)ethoxy)phenyl)-3-(3-hydroxyphenyl)-4-methyl-2H-chromen-6-ol] | −93%
16 | CC1=C(c2cc(F)ccc2F)[C@H](c2ccc(OCCN3CC(CF)C3)cc2)Oc2ccc(O)cc21 [Example 43, (2S)-3-(2,5-difluorophenyl)-2-[4-[2-[3-(fluoromethyl)azetidin-1-yl]ethoxy]phenyl]-4-methyl-2H-chromen-6-ol] | −94%
17 | CC1=C(c2cccc(S(C)(=O)=O)c2)C(c2ccc(OCCN3CC(CF)C3)cc2)Oc2ccc(O)cc21 (stereo not drawn) [Example 9, 2-(4-(2-(3-(Fluoromethyl)azetidin-1-yl)ethoxy)phenyl)-4-methyl-3-(3-(methylsulfonyl)phenyl)-2H-chromen-6-ol] | −99%
18 | CC(=O)Nc1ccc(C2=C(C)c3cc(O)ccc3OC2c2ccc(OCCN3CC(CF)C3)cc2)cc1 (stereo not drawn) [Example 11, N-(4-(2-(4-(2-(3-(Fluoromethyl)azetidin-1-yl)ethoxy)phenyl)-6-hydroxy-4-methyl-2H-chromen-3-yl)phenyl)acetamide] | −93%
19 | CC1=C(c2cc(F)cc(F)c2)[C@H](c2ccc(OCCN3CC(CF)C3)cc2)Oc2ccc(O)cc21 [Example 20, (R)- and (S)-3-(3,5-Difluorophenyl)-2-(4-(2-(3-(fluoromethyl)azetidin-1-yl)ethoxy)phenyl)-4-methyl-2H-chromen-6-ol] | −103%
20 | CC1=C(c2ccc(F)c(C#N)c2)[C@@H](c2ccc(OCCN3CC(CF)C3)cc2)Oc2ccc(O)cc21 [Example 34, (R)-2-fluoro-5-(2-(4-(2-(3-(fluoromethyl)azetidin-1-yl)ethoxy)phenyl)-6-hydroxy-4-methyl-2H-chromen-3-yl)benzonitrile] | −88%
21 | CC1=C(c2ccc(Cl)c(F)c2)C(c2ccc(OCCN3CC[C@@H](CF)C3)cc2)Oc2ccc(O)cc21 (stereo partly drawn) [Example 2] | −95%
22 | CC1=C(c2cccc(Cl)c2)[C@H](c2ccc(OCCN3CC(CF)C3)cc2)Oc2ccc(O)cc21 [Example 37, (S)-3-(3-chlorophenyl)-2-(4-(2-(3-(fluoromethyl)azetidin-1-yl)ethoxy)phenyl)-4-methyl-2H-chromen-6-ol] | −98%
23 | CC1=C(c2ccc(F)cc2)C(c2ccc(OCCN3CC(CF)C3)cc2)Oc2cc(C#N)c(O)cc21 (stereo not drawn) [Example 30, 2-{4-[2-(3-Fluoromethyl-azetidin-1-yl)-ethoxy]-phenyl}-3-(4-fluorophenyl)-6-hydroxy-4-methyl-2H-chromene-7-carbonitrile] | −92%
24 | CC1=C(c2ccc(F)cc2Cl)[C@H](c2ccc(OCCN3CC(CF)C3)cc2)Oc2ccc(O)cc21 [Example 41, (2S)-3-(2-chloro-4-fluoro-phenyl)-2-[4-[2-[3-(fluoromethyl)azetidin-1-yl]ethoxy]phenyl]-4-methyl-2H-chromen-6-ol] | −100%
25 | CC1=C(c2cc(F)ccc2C)C(c2ccc(OCCN3CC(CF)C3)cc2)Oc2ccc(O)cc21 (stereo not drawn) [Example 7, 3-(5-Fluoro-2-methylphenyl)-2-(4-(2-(3-(fluoromethyl)azetidin-1-yl)ethoxy)phenyl)-4-methyl-2H-chromen-6-ol] | −99%
26 | CC1=C(c2cccc(Cl)c2)[C@@H](c2ccc(OCCN3CC(CF)C3)cc2)Oc2ccc(O)cc21 [Example 36, (R)-3-(3-chlorophenyl)-2-(4-(2-(3-(fluoromethyl)azetidin-1-yl)ethoxy)phenyl)-4-methyl-2H-chromen-6-ol] | −95%
27 | CC1=C(c2cccc(C(N)=O)c2)C(c2ccc(OCCN3CC(CF)C3)cc2)Oc2ccc(O)cc21 (stereo not drawn) [Example 14, 3-(2-(4-(2-(3-(Fluoromethyl)azetidin-1-yl)ethoxy)phenyl)-6-hydroxy-4-methyl-2H-chromen-3-yl)benzamide] | −97%
